Measurements from patent publication US20250163104A1, “MACROCYCLIC IMMUNOMODULATORS” (priority 2021, published 2025).
Where a SMILES comes first, the peptide text is derived from it. Bridges are numbered along the chain shown (N, C = ends). [ ]: non-standard residue; d: D form. The star is where a group is joined. ξ: configuration not given here. Phe(4-COOH) = N[C@@H](Cc1ccc(C(=O)O)cc1)C(=O)O; Bip = N[C@@H](Cc1ccc(-c2ccccc2)cc1)C(=O)O; Phe(3-Me) = Cc1cccc(C[C@H](N)C(=O)O)c1; Val(3-OH) = CC(C)(O)[C@H](N)C(=O)O; 4Pal = N[C@@H](Cc1ccncc1)C(=O)O; Cha = N[C@@H](CC1CCCCC1)C(=O)O; Ile(3ξ) = CCC(C)[C@H](N)C(=O)O; Thr(3ξ) = CC(O)[C@H](N)C(=O)O; Tle = CC(C)(C)[C@H](N)C(=O)O; Carboxymethyl = O=C(O)C*; Orn = NCCC[C@H](N)C(=O)O; Dab = NCC[C@H](N)C(=O)O

Biological target: T1, human PD-1 / PD-L1-Ig binding on Jurkat cell line over-expressing human PD-1 (Jurkat-PD-1) (Homo sapiens, UniProt Q15116)
T1 construct: expressed in transfected cells; host or cells: Jurkat
T1 sequence (Q15116 25-288): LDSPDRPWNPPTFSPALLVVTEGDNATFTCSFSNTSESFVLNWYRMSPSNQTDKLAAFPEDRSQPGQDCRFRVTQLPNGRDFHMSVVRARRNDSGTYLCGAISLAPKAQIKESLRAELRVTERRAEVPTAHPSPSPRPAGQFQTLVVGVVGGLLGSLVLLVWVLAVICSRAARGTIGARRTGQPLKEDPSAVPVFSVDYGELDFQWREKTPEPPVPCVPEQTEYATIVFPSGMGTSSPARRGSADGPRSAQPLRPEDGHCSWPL
Experiment: Jurkat-PD-1 Cell Binding High-Content Screening Assay (CBA)
Assay type: cell-based
Settings: Jurkat-PD-1 cells, PE-labeled PD-L1-Ig 20 nM final; read-out: Jurkat HPD1_PDL1 IC50
How it was run: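 Jurkat cells over-expressing human PD-1, in DMEM/10% FCS, pre-incubated with compound 2 h at 37° C. PE-labeled human PD-L1-Ig (20 nM final) added for 1 h; cells fixed in paraformaldehyde with Hoechst 33342 nuclear stain, washed, and bound fluorescence quantified by high-content imaging.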

| SMILES | IC50 [nM] |
| --- | --- |
| CCC(C)[C@@H]1NC(=O)[C@H](Cc2ccc(-c3ccccc3)cc2)NC(=O)[C@H](C(C)C)NC(=O)[C@H](Cc2cccc(C)c2)NC(=O)[C@H](CC(=O)O)NC(=O)[C@H](Cc2ccc(C(=O)O)cc2)NC(=O)[C@H](Cc2ccncc2)NC(=O)CSC[C@@H](C(N)=O)NC(=O)[C@H](CO)NC(=O)[C@H](C(C)C)NC(=O)[C@H](CC2CCCCC2)NC(=O)[C@H](CCN)NC(=O)[C@@H](CC(C)C)NC(=O)[C@H](CCCN)NC1=O (stereo partly drawn) [Compound 2276] ({CH2CO}-[4Pal][Phe(4-COOH)]D[Phe(3-Me)]V[Bip][Ile(3ξ)][Orn][dL][Dab][Cha]VSC-NH2; thioether N-14) | 26.6 |
| CCC(C)[C@@H]1NC(=O)[C@H](Cc2ccc(-c3ccccc3)cc2)NC(=O)[C@H](C(C)C)NC(=O)[C@H](Cc2cccc(C)c2)NC(=O)[C@H](CC(=O)O)NC(=O)[C@H](Cc2ccc(C(=O)O)cc2)NC(=O)[C@H](Cc2ccncc2)NC(=O)CSC[C@@H](C(N)=O)NC(=O)[C@H](CCC(=O)O)NC(=O)[C@H](C(C)C)NC(=O)[C@H](CC2CCCCC2)NC(=O)[C@H](CCN)NC(=O)[C@@H](CC(C)C)NC(=O)[C@H](CCCN)NC1=O (stereo partly drawn) [Compound 2277] ({CH2CO}-[4Pal][Phe(4-COOH)]D[Phe(3-Me)]V[Bip][Ile(3ξ)][Orn][dL][Dab][Cha]VEC-NH2; thioether N-14) | 32.6 |
| CCC(C)[C@@H]1NC(=O)[C@H](Cc2ccc(-c3ccccc3)cc2)NC(=O)[C@H](C(C)C)NC(=O)[C@H](Cc2cccc(C)c2)NC(=O)[C@H](CC(=O)O)NC(=O)[C@H](Cc2ccc(C(=O)O)cc2)NC(=O)[C@H](Cc2ccncc2)NC(=O)CSC[C@@H](C(N)=O)NC(=O)[C@H](CC(=O)O)NC(=O)[C@H](C(C)C)NC(=O)[C@H](CC2CCCCC2)NC(=O)[C@H](CCN)NC(=O)[C@@H](CC(C)C)NC(=O)[C@H](CCCN)NC1=O (stereo partly drawn) [Compound 2278] ({CH2CO}-[4Pal][Phe(4-COOH)]D[Phe(3-Me)]V[Bip][Ile(3ξ)][Orn][dL][Dab][Cha]VDC-NH2; thioether N-14) | 37.6 |
| CCC(C)[C@@H]1NC(=O)[C@H](Cc2ccc(-c3ccccc3)cc2)NC(=O)[C@H](C(C)C)NC(=O)[C@H](Cc2cccc(C)c2)NC(=O)[C@H](CC(=O)O)NC(=O)[C@H](Cc2ccc(C(=O)O)cc2)NC(=O)[C@H](Cc2ccncc2)NC(=O)CSC[C@@H](C(N)=O)NC(=O)[C@H](CC(N)=O)NC(=O)[C@H](C(C)C)NC(=O)[C@H](CC2CCCCC2)NC(=O)[C@H](CCN)NC(=O)[C@@H](CC(C)C)NC(=O)[C@H](CCCN)NC1=O (stereo partly drawn) [Compound 2279] ({CH2CO}-[4Pal][Phe(4-COOH)]D[Phe(3-Me)]V[Bip][Ile(3ξ)][Orn][dL][Dab][Cha]VNC-NH2; thioether N-14) | 15.6 |
| CCC(C)[C@@H]1NC(=O)[C@H](Cc2ccc(-c3ccccc3)cc2)NC(=O)[C@H](C(C)C)NC(=O)[C@H](Cc2cccc(C)c2)NC(=O)[C@H](CC(=O)O)NC(=O)[C@H](Cc2ccc(C(=O)O)cc2)NC(=O)[C@H](Cc2ccncc2)NC(=O)CSC[C@@H](C(N)=O)NC(=O)[C@H](CCC(N)=O)NC(=O)[C@H](C(C)C)NC(=O)[C@H](CC2CCCCC2)NC(=O)[C@H](CCN)NC(=O)[C@@H](CC(C)C)NC(=O)[C@H](CCCN)NC1=O (stereo partly drawn) [Compound 2280] ({CH2CO}-[4Pal][Phe(4-COOH)]D[Phe(3-Me)]V[Bip][Ile(3ξ)][Orn][dL][Dab][Cha]VQC-NH2; thioether N-14) | 40.9 |
| Cc1cccc(C[C@@H]2NC(=O)[C@H](CC(=O)O)NC(=O)[C@H](Cc3ccc(C(=O)O)cc3)NC(=O)[C@H](Cc3ccncc3)NC(=O)CSC[C@@H](C(=O)N[C@@H](CC(N)=O)C(N)=O)NC(=O)[C@H](CO)NC(=O)[C@H](C(C)C)NC(=O)[C@H](CC3CCCCC3)NC(=O)[C@H](CCN)NC(=O)[C@@H](CC(C)C)NC(=O)[C@H](CCCN)NC(=O)[C@H](Cc3ccc(O)cc3)NC(=O)[C@H](Cc3ccc(-c4ccccc4)cc3)NC(=O)[C@H](Cc3ccc(O)cc3)NC2=O)c1 [Compound 2284] ({CH2CO}-[4Pal][Phe(4-COOH)]D[Phe(3-Me)]Y[Bip]Y[Orn][dL][Dab][Cha]VSCN-NH2; thioether N-14) | 4.1 |
| Cc1cccc(C[C@@H]2NC(=O)[C@H](CC(=O)O)NC(=O)[C@H](Cc3ccc(C(=O)O)cc3)NC(=O)[C@H](Cc3ccncc3)NC(=O)CSC[C@@H](C(=O)N[C@H](CC(N)=O)C(N)=O)NC(=O)[C@H](CO)NC(=O)[C@H](C(C)C)NC(=O)[C@H](CC3CCCCC3)NC(=O)[C@H](CCN)NC(=O)[C@@H](CC(C)C)NC(=O)[C@H](CCCN)NC(=O)[C@H](Cc3ccc(O)cc3)NC(=O)[C@H](Cc3ccc(-c4ccccc4)cc3)NC(=O)[C@H](Cc3ccc(O)cc3)NC2=O)c1 [Compound 2286] ({CH2CO}-[4Pal][Phe(4-COOH)]D[Phe(3-Me)]Y[Bip]Y[Orn][dL][Dab][Cha]VSC[dN]-NH2; thioether N-14) | 8.9 |
| Cc1cccc(C[C@@H]2NC(=O)[C@H](CC(=O)O)NC(=O)[C@H](Cc3ccc(C(=O)O)cc3)NC(=O)[C@H](Cc3ccncc3)NC(=O)CSC[C@@H](C(=O)N[C@@H](CC(N)=O)C(N)=O)NC(=O)[C@H](C(C)O)NC(=O)[C@H](C(C)C)NC(=O)[C@H](CC3CCCCC3)NC(=O)[C@H](CCN)NC(=O)[C@@H](CC(C)C)NC(=O)[C@H](CCCN)NC(=O)[C@H](Cc3ccc(O)cc3)NC(=O)[C@H](Cc3ccc(-c4ccccc4)cc3)NC(=O)[C@H](C(C)C)NC2=O)c1 (stereo partly drawn) [Compound 2288] ({CH2CO}-[4Pal][Phe(4-COOH)]D[Phe(3-Me)]V[Bip]Y[Orn][dL][Dab][Cha]V[Thr(3ξ)]CN-NH2; thioether N-14) | 14.6 |
| Cc1cccc(C[C@@H]2NC(=O)[C@H](CC(=O)O)NC(=O)[C@H](Cc3ccc(C(=O)O)cc3)NC(=O)[C@H](Cc3ccncc3)NC(=O)CSC[C@@H](C(=O)N[C@@H](CC(N)=O)C(N)=O)NC(=O)[C@H](CO)NC(=O)[C@H](C(C)C)NC(=O)[C@H](CC3CCCCC3)NC(=O)[C@H](CCN)NC(=O)[C@@H](CC(C)C)NC(=O)[C@H](CCCN)NC(=O)[C@H](Cc3ccc(O)cc3)NC(=O)[C@H](Cc3ccc(-c4ccccc4)cc3)NC(=O)[C@H](C(C)C)NC2=O)c1 [Compound 2289] ({CH2CO}-[4Pal][Phe(4-COOH)]D[Phe(3-Me)]V[Bip]Y[Orn][dL][Dab][Cha]VSCN-NH2; thioether N-14) | 16.4 |
| Cc1cccc(C[C@@H]2NC(=O)[C@H](CC(=O)O)NC(=O)[C@H](Cc3ccc(C(=O)O)cc3)NC(=O)[C@H](Cc3ccncc3)NC(=O)CSC[C@@H](C(=O)N[C@H](CC(N)=O)C(N)=O)NC(=O)[C@H]([C@@H](C)O)NC(=O)[C@H](C(C)C)NC(=O)[C@H](CC3CCCCC3)NC(=O)[C@H](CCN)NC(=O)[C@@H](CC(C)C)NC(=O)[C@H](CCCN)NC(=O)[C@H](Cc3ccc(O)cc3)NC(=O)[C@H](Cc3ccc(-c4ccccc4)cc3)NC(=O)[C@H](C(C)C)NC2=O)c1 [Compound 2290] ({CH2CO}-[4Pal][Phe(4-COOH)]D[Phe(3-Me)]V[Bip]Y[Orn][dL][Dab][Cha]VTC[dN]-NH2; thioether N-14) | 13.5 |
| Cc1cccc(C[C@@H]2NC(=O)[C@H](CC(=O)O)NC(=O)[C@H](Cc3ccc(C(=O)O)cc3)NC(=O)[C@H](Cc3ccncc3)NC(=O)CSC[C@@H](C(=O)N[C@H](CC(N)=O)C(N)=O)NC(=O)[C@H](CO)NC(=O)[C@H](C(C)C)NC(=O)[C@H](CC3CCCCC3)NC(=O)[C@H](CCN)NC(=O)[C@@H](CC(C)C)NC(=O)[C@H](CCCN)NC(=O)[C@H](Cc3ccc(O)cc3)NC(=O)[C@H](Cc3ccc(-c4ccccc4)cc3)NC(=O)[C@H](C(C)C)NC2=O)c1 [Compound 2291] ({CH2CO}-[4Pal][Phe(4-COOH)]D[Phe(3-Me)]V[Bip]Y[Orn][dL][Dab][Cha]VSC[dN]-NH2; thioether N-14) | 10.6 |
| Cc1cccc(C[C@@H]2NC(=O)[C@H](CC(=O)O)NC(=O)[C@H](Cc3ccc(C(=O)O)cc3)NC(=O)[C@H](Cc3ccncc3)NC(=O)CSC[C@@H](C(=O)N[C@@H](CCN)C(N)=O)NC(=O)[C@H]([C@@H](C)O)NC(=O)[C@H](C(C)C)NC(=O)[C@H](CC3CCCCC3)NC(=O)[C@H](CCN)NC(=O)[C@@H](CC(C)C)NC(=O)[C@H](CCCN)NC(=O)[C@H](Cc3ccc(O)cc3)NC(=O)[C@H](Cc3ccc(-c4ccccc4)cc3)NC(=O)[C@H](C(C)C)NC2=O)c1 [Compound 2292] ({CH2CO}-[4Pal][Phe(4-COOH)]D[Phe(3-Me)]V[Bip]Y[Orn][dL][Dab][Cha]VTC[Dab]-NH2; thioether N-14) | 18.4 |
| Cc1cccc(C[C@@H]2NC(=O)[C@H](CC(=O)O)NC(=O)[C@H](Cc3ccc(C(=O)O)cc3)NC(=O)[C@H](Cc3ccncc3)NC(=O)CSC[C@@H](C(=O)N[C@@H](CCN)C(N)=O)NC(=O)[C@H](CO)NC(=O)[C@H](C(C)(C)O)NC(=O)[C@H](CC3CCCCC3)NC(=O)[C@H](CCN)NC(=O)[C@@H](CC(C)C)NC(=O)[C@H](CCCN)NC(=O)[C@H](Cc3ccc(OCC(=O)O)cc3)NC(=O)[C@H](Cc3ccc(-c4ccccc4)cc3)NC(=O)[C@H](Cc3ccc(OCC(=O)O)cc3)NC2=O)c1 [Compound 2293] ({CH2CO}-[4Pal][Phe(4-COOH)]D[Phe(3-Me)]Y(Carboxymethyl)[Bip]Y(Carboxymethyl)[Orn][dL][Dab][Cha][Val(3-OH)]SC[Dab]-NH2; thioether N-14) | 5.2 |
| Cc1cccc(C[C@@H]2NC(=O)[C@H](CC(=O)O)NC(=O)[C@H](Cc3ccc(C(=O)O)cc3)NC(=O)[C@H](Cc3ccncc3)NC(=O)CSC[C@@H](C(=O)N[C@@H](CCN)C(N)=O)NC(=O)[C@H](CO)NC(=O)[C@H](C(C)(C)C)NC(=O)[C@H](CC3CCCCC3)NC(=O)[C@H](CCN)NC(=O)[C@@H](CC(C)C)NC(=O)[C@H](CCCN)NC(=O)[C@H](Cc3ccc(OCC(=O)O)cc3)NC(=O)[C@H](Cc3ccc(-c4ccccc4)cc3)NC(=O)[C@H](Cc3ccc(OCC(=O)O)cc3)NC2=O)c1 [Compound 2294] ({CH2CO}-[4Pal][Phe(4-COOH)]D[Phe(3-Me)]Y(Carboxymethyl)[Bip]Y(Carboxymethyl)[Orn][dL][Dab][Cha][Tle]SC[Dab]-NH2; thioether N-14) | 9.4 |
